Data taken from the supplement of paper PMC10307832.

Assays:
Assay in all cases: relative viability (nuclei count vs DMSO), 5 days (fraction); higher = more cells survive
BEN = test system: BEN
Procedure, shortened: (§1)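 For relative viability, nuclei counts in treated wells were divided by those in vehicle wells. Lung cancer cell lines had been pin-tool dosed in 1536-well plates the day after seeding and cultured for 5 days, then fixed and stained in one step (final 0.05% Triton X-100, 1% formaldehyde, 1 ug/ml Hoechst) and imaged at 4×. Doses were one drug alone or a fixed anchor-drug dose plus five library-drug doses (not always all listed) in √10 steps, and values are duplicate-plate medians.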

ChaGo-K-1 = test system: ChaGo-K-1
Procedure, shortened: as §1

H3255 = test system: H3255
Procedure, shortened: as §1

HCC-15 = test system: HCC-15
Procedure, shortened: as §1

HCC-78 = test system: HCC-78
Procedure, shortened: as §1

LC-2-ad = test system: LC-2-ad
Procedure, shortened: as §1

LCLC-97TM1 = test system: LCLC-97TM1
Procedure, shortened: as §1

LK-2 = test system: LK-2
Procedure, shortened: as §1

LU99A = test system: LU99A
Procedure, shortened: as §1

LXF-289 = test system: LXF-289
Procedure, shortened: as §1

NCI-H1651 = test system: NCI-H1651
Procedure, shortened: as §1

NCI-H1666 = test system: NCI-H1666
Procedure, shortened: as §1

NCI-H1944 = test system: NCI-H1944
Procedure, shortened: as §1

NCI-H2087 = test system: NCI-H2087
Procedure, shortened: as §1

NCI-H2342 = test system: NCI-H2342
Procedure, shortened: as §1

NCI-H322M = test system: NCI-H322M
Procedure, shortened: as §1

NCI-H358 = test system: NCI-H358
Procedure, shortened: as §1

NCI-H596 = test system: NCI-H596
Procedure, shortened: as §1

NCI-H650 = test system: NCI-H650
Procedure, shortened: as §1

NCI-H661 = test system: NCI-H661
Procedure, shortened: as §1

NCI-H838 = test system: NCI-H838
Procedure, shortened: as §1

PC-3 [JPC-3] = test system: PC-3 [JPC-3]
Procedure, shortened: as §1

SK-MES-1 = test system: SK-MES-1
Procedure, shortened: as §1

UMC-11 = test system: UMC-11
Procedure, shortened: as §1

C[C@@H]1CN(CC(=O)Nc2ccc3c(c2)Cc2cccc(-c4cc(=O)cc(N5CCOCC5)o4)c2S3)C[C@H](C)O1 + N=C(N)NC(=N)NCCc1ccccc1 [Phenformin] (partner 250 µM)
relative viability (BEN; first compound 0.04 µM): 0.254
relative viability (BEN; first compound 0.1265 µM): 0.261
relative viability (BEN; first compound 0.4 µM): 0.294
relative viability (BEN; first compound 4 µM): 0.264
relative viability (ChaGo-K-1; first compound 0.04 µM): 0.48
relative viability (ChaGo-K-1; first compound 0.1265 µM): 0.45
relative viability (ChaGo-K-1; first compound 0.4 µM): 0.474
relative viability (ChaGo-K-1; first compound 4 µM): 0.411
relative viability (H3255; first compound 0.04 µM): 0.388
relative viability (H3255; first compound 0.1265 µM): 0.364
relative viability (H3255; first compound 0.4 µM): 0.319
relative viability (H3255; first compound 4 µM): 0.367
relative viability (HCC-15; first compound 0.04 µM): 0.479
relative viability (HCC-15; first compound 0.1265 µM): 0.437
relative viability (HCC-15; first compound 0.4 µM): 0.401
relative viability (HCC-15; first compound 4 µM): 0.363
relative viability (HCC-78; first compound 0.04 µM): 0.656
relative viability (HCC-78; first compound 0.1265 µM): 0.661
relative viability (HCC-78; first compound 0.4 µM): 0.658
relative viability (HCC-78; first compound 4 µM): 0.619
relative viability (LC-2-ad; first compound 0.04 µM): 0.695
relative viability (LC-2-ad; first compound 0.1265 µM): 0.593
relative viability (LC-2-ad; first compound 0.4 µM): 0.587
relative viability (LC-2-ad; first compound 4 µM): 0.662
relative viability (LCLC-97TM1; first compound 0.04 µM): 0.354
relative viability (LCLC-97TM1; first compound 0.1265 µM): 0.469
relative viability (LCLC-97TM1; first compound 0.4 µM): 0.433
relative viability (LCLC-97TM1; first compound 4 µM): 0.483
relative viability (LK-2; first compound 0.1265 µM): 0.464
relative viability (LK-2; first compound 0.4 µM): 0.365
relative viability (LK-2; first compound 4 µM): 0.634
relative viability (LU99A; first compound 0.04 µM): 0.742
relative viability (LU99A; first compound 0.1265 µM): 0.985
relative viability (LU99A; first compound 0.4 µM): 1.02
relative viability (LU99A; first compound 4 µM): 0.916
relative viability (LXF-289; first compound 0.04 µM): 0.482
relative viability (LXF-289; first compound 0.1265 µM): 0.517
relative viability (LXF-289; first compound 0.4 µM): 0.549
relative viability (LXF-289; first compound 4 µM): 0.517
relative viability (NCI-H1651; first compound 0.04 µM): 0.334
relative viability (NCI-H1651; first compound 0.1265 µM): 0.321
relative viability (NCI-H1651; first compound 0.4 µM): 0.36
relative viability (NCI-H1651; first compound 4 µM): 0.313
relative viability (NCI-H1666; first compound 0.04 µM): 0.57
relative viability (NCI-H1666; first compound 0.1265 µM): 0.553
relative viability (NCI-H1666; first compound 0.4 µM): 0.58
relative viability (NCI-H1666; first compound 4 µM): 0.554
relative viability (NCI-H1944; first compound 0.04 µM): 0.191
relative viability (NCI-H1944; first compound 0.1265 µM): 0.214
relative viability (NCI-H1944; first compound 0.4 µM): 0.23
relative viability (NCI-H1944; first compound 4 µM): 0.215
relative viability (NCI-H2087; first compound 0.04 µM): 0.458
relative viability (NCI-H2087; first compound 0.1265 µM): 0.451
relative viability (NCI-H2087; first compound 0.4 µM): 0.444
relative viability (NCI-H2087; first compound 4 µM): 0.437
relative viability (NCI-H2342; first compound 0.04 µM): 0.625
relative viability (NCI-H2342; first compound 0.1265 µM): 0.568
relative viability (NCI-H2342; first compound 0.4 µM): 0.525
relative viability (NCI-H2342; first compound 4 µM): 0.519
relative viability (NCI-H322M; first compound 0.04 µM): 0.701
relative viability (NCI-H322M; first compound 0.1265 µM): 0.74
relative viability (NCI-H322M; first compound 0.4 µM): 0.729
relative viability (NCI-H322M; first compound 4 µM): 0.691
relative viability (NCI-H358; first compound 0.04 µM): 0.362
relative viability (NCI-H358; first compound 0.1265 µM): 0.28
relative viability (NCI-H358; first compound 0.4 µM): 0.371
relative viability (NCI-H358; first compound 4 µM): 0.28
relative viability (NCI-H596; first compound 0.04 µM): 0.792
relative viability (NCI-H596; first compound 0.1265 µM): 0.658
relative viability (NCI-H596; first compound 0.4 µM): 0.635
relative viability (NCI-H596; first compound 4 µM): 0.757
relative viability (NCI-H650; first compound 0.04 µM): 0.417
relative viability (NCI-H650; first compound 0.1265 µM): 0.436
relative viability (NCI-H650; first compound 0.4 µM): 0.436
relative viability (NCI-H650; first compound 4 µM): 0.33
relative viability (NCI-H661; first compound 0.04 µM): 0.261
relative viability (NCI-H661; first compound 0.1265 µM): 0.274
relative viability (NCI-H661; first compound 0.4 µM): 0.262
relative viability (NCI-H661; first compound 4 µM): 0.317
relative viability (NCI-H838; first compound 0.04 µM): 0.527
relative viability (NCI-H838; first compound 0.1265 µM): 0.54
relative viability (NCI-H838; first compound 0.4 µM): 0.497
relative viability (NCI-H838; first compound 4 µM): 0.374
relative viability (PC-3 [JPC-3]; first compound 0.04 µM): 0.494
relative viability (PC-3 [JPC-3]; first compound 0.1265 µM): 0.469
relative viability (PC-3 [JPC-3]; first compound 0.4 µM): 0.475
relative viability (PC-3 [JPC-3]; first compound 4 µM): 0.488
relative viability (SK-MES-1; first compound 0.04 µM): 0.723
relative viability (SK-MES-1; first compound 0.1265 µM): 0.652
relative viability (SK-MES-1; first compound 0.4 µM): 0.665
relative viability (SK-MES-1; first compound 4 µM): 0.546
relative viability (UMC-11; first compound 0.04 µM): 0.363
relative viability (UMC-11; first compound 0.1265 µM): 0.33
relative viability (UMC-11; first compound 0.4 µM): 0.338
relative viability (UMC-11; first compound 4 µM): 0.288
